Experimental data: the supplement of paper PMC10307832

Experiments:
Assay in all cases: relative viability (nuclei count vs DMSO), 5 days (fraction); higher = more cells survive
Masitinib + Navitoclax = compound: Cc1ccc(NC(=O)c2ccc(CN3CCN(C)CC3)cc2)cc1Nc1nc(-c2cccnc2)cs1 [Masitinib] + CC1(C)CCC(c2ccc(Cl)cc2)=C(CN2CCN(c3ccc(C(=O)NS(=O)(=O)c4ccc(N[C@H](CCN5CCOCC5)CSc5ccccc5)c(S(=O)(=O)C(F)(F)F)c4)cc3)CC2)C1 [Navitoclax] (partner 0.5 µM)
Procedure, shortened: (§1)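 Lung cancer cell lines, seeded in 1536-well plates, were treated the following day by pin tool with a single drug or with five library-drug doses (not always all listed) in √10 steps on top of a fixed anchor-drug dose. Cells were fixed and nuclei stained in one step after 5 days, and nuclei were counted. Relative viability is the nuclei count for treated wells divided by that for vehicle wells, reported as medians of duplicate plates.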

[1] = compound: CC1=CC(=CC=C1)NC2=NC(=CS2)C3=CC=NC=C3 + O=C(CCCCCCC(=O)Nc1ccccc1)NO [Vorinostat] (partner 1 µM)
Procedure, shortened: as §1

Masitinib + Linsitinib = compound: Cc1ccc(NC(=O)c2ccc(CN3CCN(C)CC3)cc2)cc1Nc1nc(-c2cccnc2)cs1 [Masitinib] + C[C@]1(O)C[C@@H](c2nc(-c3ccc4ccc(-c5ccccc5)nc4c3)c3c(N)nccn32)C1 [Linsitinib] (partner 1 µM)
Procedure, shortened: as §1

[2] = compound: CC1=CC(=CC=C1)NC2=NC(=CS2)C3=CC=NC=C3 + COc1cccc2cc(-c3nc([C@H]4CC[C@H](C(=O)O)CC4)n4ncnc(N)c34)[nH]c12 [OSI-027] (partner 0.5 µM)
Procedure, shortened: as §1

Cell Line | relative viability (Masitinib + Navitoclax; first compound 0.01 µM) | relative viability (Masitinib + Navitoclax; first compound 0.03162 µM) | relative viability (Masitinib + Navitoclax; first compound 0.1 µM) | relative viability (Masitinib + Navitoclax; first compound 0.3162 µM) | relative viability (Masitinib + Navitoclax; first compound 1 µM) | relative viability ([1]; first compound 0.08 µM) | relative viability ([1]; first compound 0.253 µM) | relative viability ([1]; first compound 0.8 µM) | relative viability ([1]; first compound 2.53 µM) | relative viability ([1]; first compound 8 µM) | relative viability (Masitinib + Linsitinib; first compound 0.01 µM) | relative viability (Masitinib + Linsitinib; first compound 0.03162 µM) | relative viability (Masitinib + Linsitinib; first compound 0.1 µM) | relative viability (Masitinib + Linsitinib; first compound 0.3162 µM) | relative viability (Masitinib + Linsitinib; first compound 1 µM) | relative viability ([2]; first compound 0.08 µM) | relative viability ([2]; first compound 0.253 µM) | relative viability ([2]; first compound 0.8 µM) | relative viability ([2]; first compound 2.53 µM) | relative viability ([2]; first compound 8 µM)
201T | 0.954 | 1.2 | 1.08 | 1.21 | 1.19 | 0.933 | 0.937 | 0.92 | 0.842 | 0.76 | 0.881 | 0.977 | 1.01 | 0.851 | 1.01 | 0.501 | 0.438 | 0.522 | 0.494 | 0.536
A549 | 1.18 | 1.19 | 1.41 | 1.19 | 1.23 | – | – | – | – | – | 0.576 | 0.602 | 0.667 | 0.681 | 0.545 | – | – | – | – | –
A-427 | – | 0.99 | – | 0.927 | 0.933 | 0.815 | 0.835 | 0.857 | 0.912 | 0.753 | – | 1.06 | – | 1.18 | 1.07 | 0.378 | 0.522 | 0.523 | 0.397 | 0.48
ABC-1 | – | – | – | – | – | 0.944 | – | 1.44 | 0.963 | 0.377 | 0.78 | 0.78 | 0.982 | 0.871 | 0.622 | 0.369 | 0.427 | 0.493 | 0.421 | 0.319
BEN | 0.066 | 0.0657 | 0.066 | 0.0612 | 0.194 | 0.566 | 0.572 | 0.503 | 0.536 | 0.595 | 1.04 | 0.858 | 1.19 | 1.23 | 0.939 | 0.304 | 0.281 | 0.295 | 0.304 | 0.322
CAL-12T | 1.52 | 1.32 | 1.26 | 1.17 | 1.25 | 0.565 | 0.74 | 0.85 | 0.609 | 0.716 | 0.769 | 0.751 | 0.94 | 0.904 | 0.805 | 0.45 | 0.546 | 0.542 | 0.469 | 0.528
COR-L23 | 1.13 | 0.892 | 1.19 | 1.29 | 1.14 | 0.251 | 0.422 | 0.317 | 0.375 | 0.36 | 1.11 | 0.923 | 1 | 1.07 | 1.05 | 0.587 | 0.66 | 0.555 | 0.64 | 0.503
COR-L 105 | 0.747 | 0.688 | 0.781 | 0.926 | 0.774 | 0.831 | 0.776 | 0.724 | 0.724 | 0.818 | 0.993 | 0.973 | 0.921 | 0.753 | 0.881 | 0.562 | 0.62 | 0.561 | 0.597 | 0.581
Calu-6 | 0.836 | 0.872 | 0.89 | 0.821 | 0.904 | – | – | – | – | – | 0.815 | 0.916 | 1.06 | 0.997 | 0.902 | – | – | – | – | –
ChaGo-K-1 | 1.36 | 0.979 | 1.31 | 1.1 | 0.839 | 0.681 | 0.735 | 0.734 | 0.777 | 0.777 | – | – | – | – | – | 0.43 | 0.459 | 0.588 | 0.394 | 0.485
EBC-1 | 0.363 | 0.397 | 0.41 | 0.385 | 0.494 | – | – | – | – | – | 0.685 | 0.753 | 1.21 | 0.857 | 0.588 | – | – | – | – | –
EKVX | – | 0.688 | 0.865 | 0.577 | 0.968 | 0.31 | 0.585 | 0.507 | 0.488 | 0.502 | – | 0.87 | 0.876 | 0.881 | 1.06 | 0.538 | 0.699 | 0.619 | 0.628 | 0.636
EMC-BAC-2 | 1.08 | 0.962 | 1.16 | 1.37 | 1.45 | 0.367 | – | 0.579 | 0.343 | 0.425 | 0.757 | 0.796 | 0.867 | 0.903 | 0.814 | 0.356 | 0.383 | 0.385 | 0.375 | 0.378
EPLC-272H | 1.08 | 1.13 | 1.08 | 1.23 | 1.06 | 0.483 | 0.353 | 0.465 | 0.292 | 0.639 | 1.08 | 1.26 | 1.19 | 1.18 | 1.01 | 0.243 | 0.274 | 0.258 | 0.27 | 0.281
H3255 | 0.441 | 0.409 | 0.496 | 0.351 | 0.409 | 0.758 | 0.723 | 0.65 | 0.666 | 0.717 | 0.679 | 0.844 | 0.837 | 0.977 | 0.936 | 0.527 | 0.615 | 0.726 | 0.494 | 0.701
HARA | 1.16 | 1.06 | 1.2 | 1.2 | 1.19 | 0.492 | 0.523 | 0.501 | 0.391 | 0.302 | 0.894 | 1.02 | 1.08 | 0.917 | 1.06 | 0.33 | 0.496 | 0.328 | 0.48 | 0.473
HCC-15 | 0.667 | 0.606 | 0.819 | 0.647 | 0.725 | 0.678 | 0.645 | 0.773 | 0.67 | 0.636 | 0.8 | 0.826 | 0.941 | 0.863 | 0.952 | 0.533 | 0.607 | 0.661 | 0.595 | 0.561
HCC-44 | 0.84 | 0.84 | 0.952 | 0.806 | 0.977 | 1.02 | 0.926 | 0.826 | 0.797 | 0.825 | 0.567 | 0.487 | 0.648 | 0.568 | 0.666 | 0.321 | 0.374 | 0.558 | 0.432 | 0.348
